± gives the expanded uncertainty stated by the source.
Experiment: xn = mol fraction of the nth substance listed
Conditions: 101 kPa, Liquid; for speed of sound: Sing-around technique in a fixed-path interferometer

ClC(Cl)Cl [trichloromethane] + CCCCCCO
Conditions	kinematic viscosity, 303.15 K [m2/s]	kinematic viscosity, 313.15 K [m2/s]	mass density, 303.15 K [kg/m3]	mass density, 313.15 K [kg/m3]	speed of sound, 303.15 K [m/s]	speed of sound, 313.15 K [m/s]
x1 = 0.0497	4.36e-06 ± 5.2e-08	3.21e-06 ± 3.9e-08	833.07 ± 0.59	825.31 ± 0.62	1271 ± 3	1238 ± 3
x1 = 0.1004	3.88e-06 ± 4.7e-08	2.89e-06 ± 3.6e-08	855.62 ± 0.61	847.51 ± 0.64	1253 ± 3	1220 ± 3
x1 = 0.15	3.45e-06 ± 4.2e-08	2.59e-06 ± 3.2e-08	878.54 ± 0.63	870.06 ± 0.66	1236 ± 3	1201 ± 3
x1 = 0.2006	3.04e-06 ± 3.7e-08	2.31e-06 ± 2.9e-08	902.79 ± 0.65	893.94 ± 0.68	1217 ± 3	1182 ± 3
x1 = 0.2506	2.67e-06 ± 3.3e-08	2.05e-06 ± 2.6e-08	927.71 ± 0.67	918.4 ± 0.7	1198 ± 3	1163 ± 3
x1 = 0.3005	2.34e-06 ± 2.9e-08	1.83e-06 ± 2.3e-08	953.48 ± 0.69	943.71 ± 0.72	1180 ± 3	1143 ± 3
x1 = 0.3497	2.04e-06 ± 2.6e-08	1.6e-06 ± 2e-08	980.04 ± 0.71	969.85 ± 0.74	1161 ± 3	1125 ± 3
x1 = 0.4004	1.77e-06 ± 2.2e-08	1.41e-06 ± 1.8e-08	1008.41 ± 0.74	997.66 ± 0.76	1142 ± 3	1105 ± 3
x1 = 0.4516	1.53e-06 ± 2e-08	1.23e-06 ± 1.6e-08	1038.38 ± 0.76	1027.09 ± 0.78	1123 ± 3	1086 ± 3
x1 = 0.4996	1.34e-06 ± 1.7e-08	1.09e-06 ± 1.5e-08	1067.63 ± 0.78	1055.84 ± 0.81	1106 ± 3	1069 ± 3
x1 = 0.552	1.14e-06 ± 1.5e-08	9.5e-07 ± 1.3e-08	1100.94 ± 0.81	1088.53 ± 0.83	1087 ± 3	1051 ± 2
x1 = 0.6	9.87e-07 ± 1.4e-08	8.33e-07 ± 1.2e-08	1133.01 ± 0.84	1120 ± 0.86	1070 ± 3	1034 ± 2
x1 = 0.654	8.52e-07 ± 1.2e-08	7.35e-07 ± 1.1e-08	1170.75 ± 0.87	1157 ± 0.89	1052 ± 2	1016 ± 2
x1 = 0.7001	7.46e-07 ± 1.1e-08	6.49e-07 ± 1e-08	1204.57 ± 0.9	1190.18 ± 0.92	1038 ± 2	1002 ± 2
x1 = 0.753	6.5e-07 ± 1e-08	5.82e-07 ± 1e-08	1245.39 ± 0.93	1230.25 ± 0.95	1023 ± 2	986 ± 2
x1 = 0.7992	5.82e-07 ± 1e-08	5.22e-07 ± 9e-09	1282.69 ± 0.96	1266.83 ± 0.98	1010 ± 2	974 ± 2
x1 = 0.8511	5.08e-07 ± 9e-09	4.7e-07 ± 9e-09	1327.07 ± 1	1310.35 ± 1	997 ± 2	961 ± 2
x1 = 0.8996	4.5e-07 ± 9e-09	4.26e-07 ± 9e-09	1370.59 ± 1	1352.95 ± 1.1	987 ± 2	950 ± 2
x1 = 0.9502	4.06e-07 ± 8e-09	3.81e-07 ± 8e-09	1418.68 ± 1.1	1400.1 ± 1.1	977 ± 2	941 ± 2
x1 = 1	3.63e-07 ± 8e-09	3.39e-07 ± 8e-09	1469.21 ± 1.1	1449.74 ± 1.1	969 ± 2	934 ± 2

ClC(Cl)Cl [trichloromethane] + CCCCCO
Conditions	kinematic viscosity, 303.15 K [m2/s]	kinematic viscosity, 313.15 K [m2/s]	mass density, 303.15 K [kg/m3]	mass density, 313.15 K [kg/m3]	speed of sound, 303.15 K [m/s]	speed of sound, 313.15 K [m/s]
x1 = 0.0603	3.29e-06 ± 3.8e-08	2.56e-06 ± 3e-08	838.65 ± 0.48	830.58 ± 0.51	1241 ± 3	1206 ± 3
x1 = 0.1009	3.02e-06 ± 3.5e-08	2.35e-06 ± 2.8e-08	859.39 ± 0.5	850.98 ± 0.53	1226 ± 3	1191 ± 3
x1 = 0.1484	2.7e-06 ± 3.1e-08	2.12e-06 ± 2.5e-08	884.22 ± 0.52	875.42 ± 0.55	1209 ± 3	1173 ± 3
x1 = 0.1999	2.37e-06 ± 2.8e-08	1.88e-06 ± 2.2e-08	911.83 ± 0.55	902.58 ± 0.58	1190 ± 3	1154 ± 3
x1 = 0.2517	2.08e-06 ± 2.5e-08	1.66e-06 ± 2e-08	940.34 ± 0.57	930.67 ± 0.6	1171 ± 3	1135 ± 3
x1 = 0.2999	1.83e-06 ± 2.2e-08	1.48e-06 ± 1.8e-08	967.6 ± 0.6	957.42 ± 0.63	1153 ± 3	1117 ± 2
x1 = 0.3492	1.61e-06 ± 2e-08	1.31e-06 ± 1.6e-08	996.23 ± 0.62	985.58 ± 0.65	1135 ± 3	1099 ± 2
x1 = 0.3998	1.39e-06 ± 1.7e-08	1.15e-06 ± 1.5e-08	1026.46 ± 0.65	1015.29 ± 0.68	1118 ± 2	1082 ± 2
x1 = 0.45	1.22e-06 ± 1.5e-08	1.02e-06 ± 1.3e-08	1057.32 ± 0.68	1045.59 ± 0.71	1101 ± 2	1065 ± 2
x1 = 0.5004	1.07e-06 ± 1.4e-08	9.03e-07 ± 1.2e-08	1089.21 ± 0.71	1076.95 ± 0.74	1084 ± 2	1048 ± 2
x1 = 0.5498	9.31e-07 ± 1.3e-08	8.02e-07 ± 1.2e-08	1121.44 ± 0.75	1108.55 ± 0.77	1068 ± 2	1032 ± 2
x1 = 0.6001	8.27e-07 ± 1.2e-08	7.22e-07 ± 1.1e-08	1155.25 ± 0.78	1141.78 ± 0.81	1053 ± 2	1017 ± 2
x1 = 0.6513	7.24e-07 ± 1.1e-08	6.43e-07 ± 1e-08	1190.8 ± 0.82	1176.65 ± 0.84	1038 ± 2	1002 ± 2
x1 = 0.7003	6.57e-07 ± 1e-08	5.85e-07 ± 1e-08	1225.93 ± 0.85	1211.12 ± 0.88	1025 ± 2	989 ± 2
x1 = 0.751	5.85e-07 ± 1e-08	5.3e-07 ± 9e-09	1263.53 ± 0.89	1247.97 ± 0.91	1012 ± 2	977 ± 2
x1 = 0.8	5.3e-07 ± 9e-09	4.83e-07 ± 9e-09	1301.08 ± 0.93	1284.81 ± 0.95	1001 ± 2	966 ± 2
x1 = 0.8503	4.87e-07 ± 9e-09	4.48e-07 ± 9e-09	1341.02 ± 0.97	1323.97 ± 0.99	991 ± 2	956 ± 2
x1 = 0.9004	4.42e-07 ± 9e-09	4.11e-07 ± 8e-09	1382.24 ± 1	1364.37 ± 1	982 ± 2	947 ± 2
x1 = 0.952	4.05e-07 ± 8e-09	3.75e-07 ± 8e-09	1426.4 ± 1.1	1407.56 ± 1.1	974 ± 2	938 ± 2
x1 = 1	3.63e-07 ± 8e-09	3.39e-07 ± 8e-09	1469.21 ± 1.1	1449.74 ± 1.1	969 ± 2	934 ± 2
